Reference: US9422309B2, “3-O-heteroaryl-ingenol” (LEO LABORATORIES LIMITED, priority 2012, dated 2016)

Key:
Format in all cases: cell-based
[1] = test system: Primary human epidermal keratinocytes, HeKa; assay: HeKa cytokine release (IL-8); conditions: 6 h at 37° C., normalised to 1.5×10^−7 M PEP0005, read-out: HeKa cytokine release (IL-8) Rel EC50 range
Experimental: Primary human epidermal keratinocytes, HeKa, are seeded (10.000 cells/well) in 96-well plates the day before the assay. Test compounds are diluted in DMSO (dimethyl sulfoxide) and further diluted in assay medium and pipetted into wells of 96 well-plates containing HeKa cells. The plates are incubated for 6 h at 37° C. in humidified air with 5% CO2. Plates are centrifuged briefly to spin down cells at 4° C., the supernatant is removed and analysed by Meso Scale Discovery (MSD) 4-spot cytokine assay (Pro-inflammatory II Ultra Sensitive kit, MSD, MD, USA). The MSD assay employs a sandwich immunoassay format where capture antibodies are coated in a patterned array on the bottom of the wells of a 4-Spot-Multi-MSD plate. Standard samples are incubated in the MULTI-SPOT plates as well, and the cytokine (IL-8) binds to its corresponding capture antibody spot. The cytokine level is quantitated on a SECTOR™ Imager using a cytokine-specific Detection Antibody labelled with MSD SULFO-TAG™ reagent.
(§1) Test compound titration curves are fitted to a four-parameter sigmoidal curve after normalizing the effect of the test compound to the effect of the positive control (1.5×10^−7 M PEP0005). Rel EC50 denotes the concentration of test compound producing an effect that is midway between the fitted top and bottom.

[2] = test system: PMN's (polymorphonuclear leukocytes); assay: Neutrophil oxidative burst; conditions: Leukocyte, 40 min; 40 min incubation at rt; normalised to 5×10^−7 M PEP0005; read-out: Neutrophil oxidative burst Rel EC50 range
Experimental: PMN's (polymorphonuclear leukocytes) are isolated and purified from fresh buffy coats by sequential sedimentation, density centrifugation and lysis of contaminating erythrocytes. In brief, buffy coats are incubated with 2% methocel for 30-45 min to differentially sediment red blood cells. The leukocyte-rich supernatant is transferred to lymphoprep tubes to remove mononuclear cells by density centrifugation (400×g, 30 min). The pellet is resuspended and any remaining erythrocytes lysed using 0.2% NaCl for 30 sec before restoring isotonicity by the addition of 1.2% NaCl. This step is repeated until the cell pellet appears relatively free of red blood cells. Cells are resuspended in DPBS (Dulbecco's Phosphate Buffered Saline) (w.o. Ca^2+, Mg^2+) and the concentration adjusted to 1.4×10^6 cells/ml in HBSS (Hanks Balanced Salt solution) (w Ca^2+, Mg^2+) containing 0.1% BSA (Bovine Serum Albumin) and 5 mM glucose just prior to assay initiation. Titrated reference and test compounds are pre-mixed with HE (Hydroethidine) (10 μM final assay concentration) before addition to 96-well plates containing 2.5×10^5 cells. Following 40 min incubation at rt, changes in the respiratory burst is estimated by measuring fluorescence at 579 nm (excitation: 485 nm) using an Envision plate reader.
as §1, with “(5×10^−7” for “(1.5×10^−7”, “bottom. Abs EC50 is the concentration of test compound that provokes a response corresponding to 50% of the maximal effect associated with the positive control (5×10^−7 M PEP0005).” for “bottom.”

HeLa cells = assay: Necrosis assay; conditions: Homo sapiens, 0.5 h, 30 min at 37° C., PrestoBlue, normalised to 4 10^−4 M PEP0005/ingenol mebutate, read-out: HeLa necrosis EC50 range
Experimental: HeLa cells (ATCC CCL-002) were grown in minimal essential medium (Invitrogen catalog no. 42360) containing 10% fetal bovine serum, 100 IU/ml penicillin and 100 μg/ml streptomycin. 4,000-6,000 cells were seeded into 96-well black ViewPlates-plates, clear bottom, (Perkin Elmer) in 100 μl medium and incubated overnight. Compounds were dissolved and pre-diluted in DMSO in 96-well polypropylene plates (Greiner) in a concentration range of 15 μM to 600 μM. At the time of the experiment cell plates were placed on heating blocks at 37° C., medium was removed and 40 μl fresh, pre-warmed medium was added per well. Cells were incubated for 15 min before addition of compounds. In parallel, 3 μl of compounds were diluted with 197 μl growth medium on a Tecan freedom-EVO pipetting station using 250 μl/s pipetting speed, in order to ensure effective mixing of the highly concentrated compound solutions with the aqueous phase.
These pre-dilution plates were then equilibrated on heating blocks at 37° C. for 10 min. 80 μl pre-diluted compound were transferred manually to the corresponding wells containing HeLa cells yielding compound concentrations of 10 μM to 400 μM. Control conditions were 1% DMSO in growth medium (100% viability) and 400 μM ingenol mebutate in growth medium (0% viability). Plates were incubated on the heating blocks at 37° C. for 30 min. At the end of the incubation 10 μl PrestoBlue reagent (Invitrogen) were added to each well, plates were sealed with black seal, followed by incubation at 37° C. for 10 min with gentle shaking (150 rpm). Subsequently, plates were placed at room temperature for 20-30 min. Plates were read immediately after on an Envision Fluorescence reader (Perkin Elmer) with excitation at 535 nm and emission at 630 nm. Test compound titration curves were fitted to a four-parameter sigmoidal curve after normalizing the effect of the test compound to the effect of the positive control (4 10^−4 M PEP0005/ingenol mebutate). Abs EC50 denotes the concentration of test compound producing 50% effect.

| SMILES | EC50 [1] [nM] | EC50 [2] [nM] | EC50 (HeLa cells) [nM] |
| --- | --- | --- | --- |
| CC1=C[C@]23C(=O)[C@@H](C=C(CO)[C@@H](O)[C@]2(O)[C@H]1Oc1nccn1C1CCCC1)[C@H]1[C@@H](C[C@H]3C)C1(C)C [Compound 120, 3-O-(1-Cyclopentylimidazol-2-yl)-ingenol] | < 20 | < 20 | 150000 to 350000 |
| CC1=C[C@]23C(=O)[C@@H](C=C(CO)[C@@H](O)[C@]2(O)[C@H]1Oc1ncccc1C)[C@H]1[C@@H](C[C@H]3C)C1(C)C [Compound 124, 3-O-(3-Methyl-2-pyridyl)-ingenol] | ≥ 100 | ≥ 100 | ≥ 350000 |
| CC1=C[C@]23C(=O)[C@@H](C=C(CO)[C@@H](O)[C@]2(O)[C@H]1Oc1ccccn1)[C@H]1[C@@H](C[C@H]3C)C1(C)C [Compound 106, 3-O-(2-Pyridyl)-ingenol] | 20 to 100 | ≥ 100 | ≥ 350000 |
| CC1=C[C@]23C(=O)[C@@H](C=C(CO)[C@@H](O)[C@]2(O)[C@H]1Oc1ncccc1C=O)[C@H]1[C@@H](C[C@H]3C)C1(C)C [Compound 105, 3-O-(3-Formyl-2-pyridyl)-ingenol] | ≥ 100 | ≥ 100 | ≥ 350000 |
| CC1=C[C@]23C(=O)[C@@H](C=C(CO)[C@@H](O)[C@]2(O)[C@H]1Oc1ncccc1Cl)[C@H]1[C@@H](C[C@H]3C)C1(C)C [Compound 115, 3-O-(3-Chloro-2-pyridyl)-ingenol] | 20 to 100 | 20 to 100 | 150000 to 350000 |
| CC1=C[C@]23C(=O)[C@@H](C=C(CO)[C@@H](O)[C@]2(O)[C@H]1Oc1nccc2ccccc12)[C@H]1[C@@H](C[C@H]3C)C1(C)C [Compound 119, 3-O-(1-Isoquinolyl)-ingenol] | < 20 | 20 to 100 | 150000 to 350000 |
| C=CCc1c(Cl)ncnc1O[C@H]1C(C)=C[C@]23C(=O)[C@@H](C=C(CO)[C@@H](O)[C@]12O)[C@H]1[C@@H](C[C@H]3C)C1(C)C [Compound 104, 3-O-(5-Allyl-6-chloro-pyrimidin-4-yl)-ingenol] | < 20 | 20 to 100 | < 150000 |
| CC1=C[C@]23C(=O)[C@@H](C=C(CO)[C@@H](O)[C@]2(O)[C@H]1Oc1ncccc1C(F)(F)F)[C@H]1[C@@H](C[C@H]3C)C1(C)C [Compound 118, 3-O-(3-(Trifluoromethyl)-2-pyridyl)-ingenol] | 20 to 100 | < 20 | < 150000 |
| CC1=C[C@]23C(=O)[C@@H](C=C(CO)[C@@H](O)[C@]2(O)[C@H]1Oc1nccn1C)[C@H]1[C@@H](C[C@H]3C)C1(C)C [Compound 108, 3-O-(1-Methylimidazol-2-yl)-ingenol] | ≥ 100 | ≥ 100 | ≥ 350000 |
| CC1=C[C@]23C(=O)[C@@H](C=C(CO)[C@@H](O)[C@]2(O)[C@H]1Oc1nn(C)c2ccccc12)[C@H]1[C@@H](C[C@H]3C)C1(C)C [Compound 107, 3-O-(1-Methylindazol-3-yl)-ingenol] | ≥ 100 | ≥ 100 | 150000 to 350000 |
| COc1ccc2onc(O[C@H]3C(C)=C[C@]45C(=O)[C@@H](C=C(CO)[C@@H](O)[C@]34O)[C@H]3[C@@H](C[C@H]5C)C3(C)C)c2c1 [Compound 130, 3-O-(5-Methoxy-1,2-benzoxazol-3-yl)-ingenol] | < 20 | < 20 | 150000 to 350000 |
| CC1=C[C@]23C(=O)[C@@H](C=C(CO)[C@@H](O)[C@]2(O)[C@H]1Oc1cc(Br)ccn1)[C@H]1[C@@H](C[C@H]3C)C1(C)C [Compound 111, 3-O-(4-Bromo-2-pyridyl)-ingenol] | 20 to 100 | 20 to 100 | 150000 to 350000 |
| CC1=C[C@]23C(=O)[C@@H](C=C(CO)[C@@H](O)[C@]2(O)[C@H]1Oc1noc2cc(Cl)ccc12)[C@H]1[C@@H](C[C@H]3C)C1(C)C [Compound 125, 3-O-(6-Chloro-1,2-benzoxazol-3-yl)-ingenol] | < 20 | < 20 | < 150000 |
